Measurements published in patent US10983112B2, “Bile acid biomarkers for Niemann-Pick diseases, methods and uses therefor” (Washington University, priority 2014, dated 2021).

Tests used:
[1] = rat; cited from earlier work
[2] = Sample stability of bile acid B in dried blood spots, whole blood, processed samples, stock and working solutions; assay type: physicochemical
Description: Sample stability. The storage stability of dried blood spots and processed sample stabilities in the autosampler were determined at the LQC and HQC concentration levels (n=3). Storage stability of bile acid B in dried blood spots was tested at −20° C. and room temperature for 66 days, and at 37° C. for 90 hours. In the autosampler, stability was tested over seven days by injecting the first batch of the validation samples. The LQC and HQC in whole blood were placed on benchtop at room temperature for 27 hours and then spotted onto newborn screening cards to examine stability of bile acid B in whole blood. Stock solution stability was established by quantification of samples from dilution of two stock solutions that have been stored at −20° C. for 91 days and at room temperature on the bench for 22 hours, respectively, to the final solution (500 ng/mL in water). The storage stability of internal standard working solution was tested at room temperature for 12 days. A fresh standard curve was established each time. Bile acid B was stable in dried blood spots in newborn screening cards for up to 66 days at room temperature storage.
Stability in whole blood, dried blood spots, processed samples, stock and working solutions. The allowable time bile acid B spiked whole blood sample can remain at room temperature prior to spoiling on a newborn screening card was determined with LQC and HQC blood samples, which were remained at room temperature for 27 hours prior to spotting. Three replicates were assessed and the accuracy (within ±4.5% RE) and precision (<7.5% CV) were within the quality control acceptance criteria stated above. Bile acid B is therefore considered stable in whole blood for 27 hours prior to spotting.
The stability of bile acid B in dried blood spots on the newborn screening cards stored at room temperature and −20° C. for 66 days and at 37° C. for 90 hours was assessed by comparisons of three replicates of stored LQC and HQC against freshly prepared calibration standards and QC samples. […] Processed sample stability was assessed by re-injection of LQC and HQC together with calibration curve from one accuracy/precision run after storage in the autosampler at 4° C. for 7 days.
Stock solution stability of bile acid B and internal standard in acetonitrile-water (1:1) was established for 22 hours at room temperature. The internal standard in aqueous working solution (1% sodium dodecyl sulfate (SDS) and 50 mM trisodium citrate at pH 12) was stable for 12 days at room temperature.

Hep G2 cells = assay: Biosynthesis of bile acids from cholestane-3β,5α,6β-triol in Hep G2 cells; assay type: in vitro ADME, human; conditions: 2.5 ng/mL, 24 h, conditioned medium
Description: To explore the biosynthetic route of the bile acids, the human hepatoblastoma-derived cell line Hep G2 was incubated with cholestane-3β,5α,6β-triol and 7,7,22,22,22-d4-cholestane-3β,5α,6β-triol. Hep G2 cells (1×10^6 cells/well) were seeded in a 6-well plate in triplicate and maintained in Dulbecco's modified Eagle's medium supplemented with 15% fetal calf serum and 100 U of penicillin G/mL and […] streptomycin sulfate at 37° C. in a humidified atmosphere with 5% CO2. Hep G2 cells were treated when they were 80% confluent. For the treatment, 100× stock solutions were made in DMSO for triol and d4-triol. DMSO concentration never exceeded 1% in the culture medium. […] The supernatant was transferred to a glass HPLC insert and analyzed immediately after preparation by the LC-MS/MS.
LC-MS/MS analysis was conducted on a Shimadzu (Columbia, Md.) Prominence UFLC system coupled with an Applied Biosystems/MDS Sciex (Ontario, Canada) 4000QTRAP mass spectrometer using multiple reaction monitoring (MRM). […] Data were acquired and analyzed by Analyst software (version 1.5.2). […] FIG. 40 depicts synthetic bile acid A detected by MRM transition m/z 407→407. FIG. 41 depicts bile acid A generated from cholestane-3β,5α,6β-triol in HepG2 cells and detected by MRM transition m/z 407→407. […]

SMILES	metabolite of cholestane-3β,5α,6β-triol [1]	stock solution stability ([2]; acetonitrile-water (1:1), room temperature) [h]	processed sample stability ([2]; autosampler at 4° C. for 7 days)	stability in dried blood spots on newborn screening cards ([2]; room temperature)	stability in whole blood prior to spotting ([2]; room temperature, LQC and HQC) [h]	stability in dried blood spots on newborn screening cards ([2]; room temperature, listed as bile acid B)	stability in dried blood spots on newborn screening cards ([2]; shipping conditions (37° C.)) [h]	stability in dried blood spots on newborn screening cards ([2]; −20° C.)	formation from cholestane-3β,5α,6β-triol or d4-triol (Hep G2 cells)
C[C@H](CCC(=O)O)[C@H]1CCC2C3C[C@@H](O)[C@@]4(O)C[C@@H](O)CC[C@]4(C)C3CC[C@@]21C (stereo partly drawn) [Bile acid A, 3β,5α,6β-trihydroxycholanic acid]	major metabolite								
C[C@H](CCC(=O)NCC(=O)O)[C@H]1CC[C@H]2[C@@H]3C[C@@H](O)[C@@]4(O)C[C@@H](O)CC[C@]4(C)[C@H]3CC[C@]12C [Bile acid B, N-(3β,5α,6β-trihydroxy-cholan-24-oyl)glycine]		22	Stability was demonstrated	up to 66 days	27	at least 66 days	90	at least 66 days	No bile acid B was found
